We go through 26 compounds from patent US20060135773A1, “Trisubstituted nitrogen modulators of tyrosine phosphatases” (priority 2004, published 2006).

This test deals with T1, PTP-1B (Homo sapiens, UniProt P18031).
T1 construct: PTP-1B (purified, 1 mg/mL) as a 1:250 dilution
T1 sequence (P18031 1-321 limits assumed): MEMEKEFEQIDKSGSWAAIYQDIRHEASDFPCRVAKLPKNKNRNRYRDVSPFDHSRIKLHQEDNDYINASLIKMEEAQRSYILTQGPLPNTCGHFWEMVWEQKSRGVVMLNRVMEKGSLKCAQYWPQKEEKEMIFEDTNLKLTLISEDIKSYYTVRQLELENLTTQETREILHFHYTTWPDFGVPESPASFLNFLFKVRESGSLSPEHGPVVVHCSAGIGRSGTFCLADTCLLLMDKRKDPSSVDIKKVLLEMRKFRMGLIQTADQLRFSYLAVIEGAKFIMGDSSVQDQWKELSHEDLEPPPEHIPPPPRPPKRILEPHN
The experiment in a line: pNPP tyrosine phosphatase inhibition assay, PTP-1B. In kind it is biochemical. To be noted: pNPP assay, PTP-1B; read-out: Activity Class (IC50 ranges). As for the experimental part:
The compounds provided herein are evaluated for biological activity as inhibitors of PTP-1B using, for example, a pNPP assay can be used to screen compounds for tyrosine phosphatase inhibitory activity as described in the Examples.
A 5× stock of pNPP (p-nitrophenol phosphate) substrate is prepared as 50 mM pNPP in assay buffer. Various tyrosine phosphatase solutions can be prepared as follows: • PTP-1B (purified, 1 mg/mL) as a 1:250 dilution (to a final concentration of 4:g/mL); • TC-PTP (NEB, 1000 units in 100:L) as a 1:50 dilution (to a final concentration of 2U/10:L (4:g/mL)); • CD45 (Calbiochem, 20:g, 400 units in 100:L) as a 1:50 dilution (to a final concentration of 0.8U/10:L (4:g/mL)); • LAR (NEB, 1000 units in 200:L) as a 1:75 dilution (to a final concentration of 0.7U/10:L (4:g/mL)); and • PTP-β (UBI, #14-350, 10,000 units, 40:g/571:L) as a 1:17.5 dilution (to a final concentration of 10U/10:L (4:g/mL));
The compound to be tested is prepared as 1:16.7 and 1:50 dilutions from stock in a total volume of […] DMSO to give final concentrations of 626 and 200:M. The reaction mixtures are prepared in a 96-well microtiter plate (on ice) as 55:L assay buffer, 5:L of the diluted compound (to a final concentration of 31.3 and 10:M), 20:L of the pNPP substrate solution (to a final concentration of 10 mM) and 20:L PTPase in assay buffer. The reactants are mixed well, the plate placed in a water bath at 30° C. and incubated for 10 minutes. The reaction is then terminated by adding 100:L of 2M K2CO3 per well, and the absorbance is measured at 405 nm by conventional means.
Unless otherwise indicated, this assay was used to determine activity for the selected compounds whose activity is provided in Table 1.

Some results are limits rather than exact numbers.

As for “2,2-Dimethyl-propionic acid [(2-bromo-4-{[(4-methanesulfonyl-phenyl)-(2-methoxy-benzenesulfonyl)-amino]-methyl}-phenyl)-difluoro-methyl]-(2,2-dimethyl-propionyloxymethoxy)-phosphinoyloxymethyl ester [Compound 229]”, the IC50 is over 25000 nM.
The value for “2,2-Dimethyl-propionic acid [(2-bromo-4-{[(4-methanesulfonyl-phenyl)-(2-methoxy-benzenesulfonyl)-amino]-methyl}-phenyl)-difluoro-methyl]-hydroxy-phosphinoyloxymethyl ester [Compound 228]” was 2500 to 25000 nM.
With “2,2-Dimethyl-propionic acid [(2-chloro-4-{[(3,4-dichloro-benzyl)-(2-methoxy-benzenesulfonyl)-amino]-methyl}-phenyl)-difluoro-methyl]-hydroxy-phosphinoyloxymethyl ester [Compound 150]”, the IC50 lay in the range of 250 to 499 nM.
The value for “2-(3-{4-[({[4-(difluorophosphonomethyl)-3-chlorophenyl]methyl}[(2-methoxyphenyl)sulfonyl]amino)methyl]phenyl}phenyl)acetic acid [Compound 193]” was under 99 nM.
For “3-[(4-{[(2-Methoxy-benzenesulfonyl)-naphthalen-1-ylmethyl-amino]-methyl}-phenyl)-oxalyl-amino]-butyric acid [Compound 225]” the value was over 25000 nM.
For “3-{2-Bromo-4-[N-(4-cyanobenzyl)-N-(2-methoxy-benzenesulfonyl)aminomethyl]-phenoxy}-acetic acid [Compound 121]” the value was over 25000 nM; for “3-{4-[({[4-(difluorophosphonomethyl)-3-chlorophenyl]methyl}[(2-methoxyphenyl)sulfonyl]amino)methyl]phenyl}-5-bromobenzoic acid [Compound 195]”, under 99 nM; for “4-{2-[({[4-(difluorophosphonomethyl)-3-chlorophenyl]methyl}[(2-methoxyphenyl)sulfonyl]amino)methyl]phenyl}benzamide [Compound 199]”, under 99 nM.
Take “5-{4-[({[4-(difluorophosphonomethyl)-3-chlorophenyl]methyl}[(2-methoxyphenyl)sulfonyl]amino)methyl]phenyl}-2-methoxybenzoic acid [Compound 207]”: the IC50 was under 99 nM.
With “5-{4-[({[4-(difluorophosphonomethyl)phenyl]methyl}[(2-methoxyphenyl)sulfonyl]amino)methyl]phenyl}-2-hydroxybenzoic acid [Compound 210]”, the IC50 fell in the range of 250 to 499 nM.
On to `COC(=O)c1ccc(CN(Cc2ccc(C(F)(F)P(=O)(O)O)c(Br)c2)S(=O)(=O)c2ccccc2)cc1` [Compound 30, 4-({Benzenesulfonyl-[3-bromo-4-(difluoro-phosphono-methyl)-benzyl]-amino}-methyl)-benzoic acid methyl ester], for which the IC50 lay within 250 to 499 nM.
The value for `O=P(O)(O)C(F)(F)c1ccc(CN(c2ccc(Cl)c(Cl)c2)S(=O)(=O)c2ccccc2)cc1Br` [Compound 34, [(4-{[Benzenesulfonyl-(3,4-dichloro-phenyl)-amino]-methyl}-2-bromo-phenyl)-difluoro-methyl]-phosphonic acid] was 250 to 499 nM; that for `O=P(O)(O)C(F)(F)c1ccc(CN(Cc2ccc(C(F)(F)P(=O)(O)O)c(Br)c2)S(=O)(=O)c2ccccc2)cc1` [Compound 38, {[4-({Benzenesulfonyl-[4-(difluoro-phosphono-methyl)-benzyl]-amino}-methyl)-2-bromo-phenyl]-difluoro-methyl}-phosphonic acid] was under 99 nM.
For `O=P(O)(O)C(F)(F)c1ccc(CN(Cc2ccc(C(F)(F)P(=O)(O)O)c(Br)c2)S(=O)(=O)c2ccc3ccccc3c2)cc1` [Compound 42, [(2-Bromo-4-{[[4-(difluoro-phosphono-methyl)-benzyl]-(naphthalene-2-sulfonyl)-amino]-methyl}-phenyl)-difluoro-methyl]-phosphonic acid] the value was under 99 nM; for `COc1ccccc1S(=O)(=O)N(Cc1ccc(-c2cccc(C#N)c2)cc1)Cc1ccc(C(F)(F)P(=O)(O)O)c(Cl)c1` [Compound 46, [(2-Chloro-4-{[(3′-cyano-biphenyl-4-ylmethyl)-(2-methoxy-benzenesulfonyl)-amino]-methyl}-phenyl)-difluoro-methyl]-phosphonic acid], 100 to 249 nM; for `COc1ccccc1S(=O)(=O)N(Cc1ccc(-c2cccc(-c3nn[nH]n3)c2)cc1)Cc1ccc(C(F)(F)P(=O)(O)O)c(Cl)c1` [Compound 47, {[2-Chloro-4-({(2-methoxy-benzenesulfonyl)-[3′-(2H-tetrazol-5-yl)-biphenyl-4-ylmethyl]-amino}-methyl)-phenyl]-difluoro-methyl}-phosphonic acid], under 99 nM.
The value for `COc1ccccc1S(=O)(=O)N(Cc1ccc(Cl)c(Cl)c1)Cc1ccc(NC(=O)C(=O)O)c(C(=O)O)c1` [Compound 56, 5-{[(3,4-Dichloro-benzyl)-(2-methoxy-benzenesulfonyl)-amino]-methyl}-2-(oxalyl-amino)-benzoic acid] was over 25000 nM; that for `Cc1cc(C=C(C#N)C(=O)Nc2ccc3ccccc3c2)c(C)n1-c1ccc(C(=O)O)cc1` [Compound 58, 4-{3-[2-Cyano-2-(naphthalen-2-ylcarbamoyl)-vinyl]-2,5-dimethyl-pyrrol-1-yl}-benzoic acid] was over 25000 nM; that for `CC(=O)N(Cc1ccc(C(F)(F)P(=O)(O)O)cc1)Cc1ccc(C(F)(F)P(=O)(O)O)cc1` [Compound 59, {[4-({Acetyl-[4-(difluoro-phosphono-methyl)-benzyl]-amino}-methyl)-phenyl]-difluoro-methyl}-phosphonic acid] was over 25000 nM.
In the case of `O=P(O)(O)C(F)(F)c1ccc(CN(Cc2ccc(C(F)(F)P(=O)(O)O)cc2)S(=O)(=O)c2ccccc2)cc1` [Compound 60, {[4-({Benzenesulfonyl-[4-(difluoro-phosphono-methyl)-benzyl]-amino}-methyl)-phenyl]-difluoro-methyl}-phosphonic acid], the IC50 lay within 250 to 499 nM.
The value for `CC(C)COC(=O)N(Cc1ccc(C(F)(F)P(=O)(O)O)cc1)Cc1ccc(C(F)(F)P(=O)(O)O)cc1` [Compound 61, {[4-({[4-(Difluoro-phosphono-methyl)-benzyl]-isobutoxycarbonyl-amino}-methyl)-phenyl]-difluoro-methyl}-phosphonic acid] was 2500 to 25000 nM.
The value for `O=P(O)(O)C(F)(F)c1ccc(CN(Cc2ccc(C(F)(F)P(=O)(O)O)cc2)c2ccc(-c3ccccc3)cc2)cc1` [Compound 62, {[4-({Biphenyl-4-yl-[4-(difluoro-phosphono-methyl)-benzyl]-amino}-methyl)-phenyl]-difluoro-methyl}-phosphonic acid] was 2500 to 25000 nM; that for `O=P(O)(O)C(F)(F)c1ccc(CN(Cc2ccc(C(F)(F)P(=O)(O)O)cc2)C2CCCC2)cc1` [Compound 63, {[4-({Cyclopentyl-[4-(difluoro-phosphono-methyl)-benzyl]-amino}-methyl)-phenyl]-difluoro-methyl}-phosphonic acid] was over 25000 nM; that for `O=P(O)(O)C(F)(F)c1ccc(CN(Cc2ccc(C(F)(F)P(=O)(O)O)cc2)c2ccccc2)cc1` [Compound 64, {[4-({[4-(Difluoro-phosphono-methyl)-benzyl]-phenyl-amino}-methyl)-phenyl]-difluoro-methyl}-phosphonic acid] was 2500 to 25000 nM.
The value for `O=P(O)(O)C(F)(F)c1ccc(CN(Cc2ccccc2)Cc2ccc(C(F)(F)P(=O)(O)O)cc2)cc1` [Compound 65, {[4-({Benzyl-[4-(difluoro-phosphono-methyl)-benzyl]-amino}-methyl)-phenyl]-difluoro-methyl}-phosphonic acid] was over 25000 nM; that for `O=P(O)(O)C(F)(F)c1ccc(CN(Cc2ccc(C(F)(F)P(=O)(O)O)cc2)S(=O)(=O)c2ccc(-c3ccccc3)cc2)cc1` [Compound 66, {[4-({(Biphenyl-4-sulfonyl)-[4-(difluoro-phosphono-methyl)-benzyl]-amino}-methyl)-phenyl]-difluoro-methyl}-phosphonic acid] was 250 to 499 nM.
